Drawing on ChEMBL document CHEMBL1129840, “The synthesis and SAR of new 4-(N-alkyl-N-phenyl)amino-6,7-dimethoxyquinazolines and 4-(N-alkyl-N-phenyl)aminopyrazolo[3,4-d]pyrimidines, inhibitors of CSF-1R tyrosine kinase activity” (Bioorg Med Chem Lett, 1997), this text covers IC50 for 21 molecules.

Experiment [1] concerns the target Macrophage colony-stimulating factor 1 receptor (Homo sapiens, UniProt P07333). Kind of experiment: Antagonism towards Colony stimulating factor 1 receptor (CSF-1R). The class given is functional.
The target of experiment [2] is Epidermal growth factor receptor (Homo sapiens, UniProt P00533). Nature of the experiment: Antagonism towards Epidermal growth factor receptor.
For experiment [3], the target named is Platelet-derived growth factor receptor (Homo sapiens, UniProt P09619+P16234). Kind of experiment: Inhibition of platelet-derived growth factor receptor (PDGF-R).
Experiment [4] addresses Tyrosine-protein kinase Lck (Homo sapiens, UniProt P06239). Nature of the experiment: Inhibition of p56 lck tyrosine kinase (inactive).

Chain of Epidermal growth factor receptor (P00533 whole entry): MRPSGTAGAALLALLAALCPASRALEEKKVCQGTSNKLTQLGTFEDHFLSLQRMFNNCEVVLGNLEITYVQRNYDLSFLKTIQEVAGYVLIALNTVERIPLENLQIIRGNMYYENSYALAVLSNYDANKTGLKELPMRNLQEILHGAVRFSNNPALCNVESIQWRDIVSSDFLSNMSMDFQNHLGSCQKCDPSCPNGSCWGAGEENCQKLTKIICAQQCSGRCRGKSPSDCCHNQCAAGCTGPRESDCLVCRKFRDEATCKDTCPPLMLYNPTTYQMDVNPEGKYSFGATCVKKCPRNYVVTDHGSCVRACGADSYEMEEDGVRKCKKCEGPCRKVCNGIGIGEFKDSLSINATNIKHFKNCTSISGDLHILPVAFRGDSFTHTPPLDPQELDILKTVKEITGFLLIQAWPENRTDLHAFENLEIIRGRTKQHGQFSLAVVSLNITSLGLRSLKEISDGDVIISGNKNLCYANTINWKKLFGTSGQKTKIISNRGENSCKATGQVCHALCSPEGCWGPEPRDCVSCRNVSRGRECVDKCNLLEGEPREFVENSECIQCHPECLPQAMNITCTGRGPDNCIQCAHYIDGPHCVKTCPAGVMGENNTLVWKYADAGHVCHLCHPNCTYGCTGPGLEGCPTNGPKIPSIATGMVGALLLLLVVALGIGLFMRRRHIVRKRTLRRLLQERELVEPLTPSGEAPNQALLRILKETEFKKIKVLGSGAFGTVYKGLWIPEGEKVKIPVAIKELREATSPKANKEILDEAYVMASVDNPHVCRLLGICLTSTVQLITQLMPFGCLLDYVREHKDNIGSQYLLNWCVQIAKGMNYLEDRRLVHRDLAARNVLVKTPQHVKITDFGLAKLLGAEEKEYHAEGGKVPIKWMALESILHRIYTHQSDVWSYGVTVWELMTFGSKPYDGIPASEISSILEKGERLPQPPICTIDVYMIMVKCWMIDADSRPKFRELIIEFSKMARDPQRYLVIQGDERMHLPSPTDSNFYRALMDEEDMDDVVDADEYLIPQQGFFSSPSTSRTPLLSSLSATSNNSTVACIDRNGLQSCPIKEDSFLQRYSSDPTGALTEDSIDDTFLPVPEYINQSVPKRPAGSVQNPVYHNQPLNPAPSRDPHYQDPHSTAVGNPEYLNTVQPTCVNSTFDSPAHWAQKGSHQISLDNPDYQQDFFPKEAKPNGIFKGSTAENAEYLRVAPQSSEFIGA
Chain of Macrophage colony-stimulating factor 1 receptor (P07333 whole entry): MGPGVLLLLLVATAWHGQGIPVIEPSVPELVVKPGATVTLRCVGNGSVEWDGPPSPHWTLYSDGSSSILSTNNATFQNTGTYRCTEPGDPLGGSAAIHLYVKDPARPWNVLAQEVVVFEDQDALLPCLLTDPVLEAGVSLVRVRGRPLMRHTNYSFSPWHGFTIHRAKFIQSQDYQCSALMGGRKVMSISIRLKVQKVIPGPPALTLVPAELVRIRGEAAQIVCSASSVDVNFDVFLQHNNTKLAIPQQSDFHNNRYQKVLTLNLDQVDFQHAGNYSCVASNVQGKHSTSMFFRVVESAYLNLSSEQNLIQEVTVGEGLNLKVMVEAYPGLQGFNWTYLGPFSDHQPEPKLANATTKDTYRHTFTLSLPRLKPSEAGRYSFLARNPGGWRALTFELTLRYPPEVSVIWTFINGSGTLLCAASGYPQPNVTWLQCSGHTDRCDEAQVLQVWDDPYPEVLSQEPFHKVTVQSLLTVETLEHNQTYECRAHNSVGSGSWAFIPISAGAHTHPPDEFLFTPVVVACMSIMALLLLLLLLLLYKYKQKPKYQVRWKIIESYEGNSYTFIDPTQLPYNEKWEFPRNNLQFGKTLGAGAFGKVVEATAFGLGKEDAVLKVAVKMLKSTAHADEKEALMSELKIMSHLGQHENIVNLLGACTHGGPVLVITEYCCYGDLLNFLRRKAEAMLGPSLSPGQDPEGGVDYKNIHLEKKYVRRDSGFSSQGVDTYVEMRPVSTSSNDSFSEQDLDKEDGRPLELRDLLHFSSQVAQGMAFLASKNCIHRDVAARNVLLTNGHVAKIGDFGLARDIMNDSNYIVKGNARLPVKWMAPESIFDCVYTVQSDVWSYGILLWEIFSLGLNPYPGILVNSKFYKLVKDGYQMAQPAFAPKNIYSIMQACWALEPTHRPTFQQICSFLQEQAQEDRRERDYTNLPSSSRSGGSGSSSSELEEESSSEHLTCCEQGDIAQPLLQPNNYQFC
Chain of Tyrosine-protein kinase Lck (P06239 whole entry): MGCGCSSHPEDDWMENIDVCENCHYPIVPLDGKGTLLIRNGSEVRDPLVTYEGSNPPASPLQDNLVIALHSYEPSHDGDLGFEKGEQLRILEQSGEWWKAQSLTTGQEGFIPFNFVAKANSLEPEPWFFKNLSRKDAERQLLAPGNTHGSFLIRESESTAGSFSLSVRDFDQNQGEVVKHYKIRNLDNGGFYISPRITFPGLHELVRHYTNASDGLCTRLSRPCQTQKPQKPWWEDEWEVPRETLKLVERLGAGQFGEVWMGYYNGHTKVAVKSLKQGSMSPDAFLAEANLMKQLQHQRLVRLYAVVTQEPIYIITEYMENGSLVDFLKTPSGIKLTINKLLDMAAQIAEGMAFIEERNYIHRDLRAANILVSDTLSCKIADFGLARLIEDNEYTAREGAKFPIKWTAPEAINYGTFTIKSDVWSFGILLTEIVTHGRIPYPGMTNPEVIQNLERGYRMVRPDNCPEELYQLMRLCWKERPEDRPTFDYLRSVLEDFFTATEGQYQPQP

As a reminder, the IC50 is the concentration that inhibits the measured activity by half. A higher IC50 goes with lower potency. `Cc1cc(C)c2ncnc(N(C)c3ccccc3)c2c1`: the IC50 in experiment [1] and in experiment [2] was above 20 µM each time.

Turning to `CN(c1ccccc1)c1ncnc2ccc(Cl)cc12`, the results for the IC50 in experiment [1] and in experiment [2] were 5 µM and above 20 µM, respectively.

For the molecule `COc1cc2nc(Cl)nc(N(C)c3ccccc3)c2cc1OC`, the IC50 in experiment [1] and in experiment [2] was above 50 µM each time.

Take `COc1nc(N(C)c2ccccc2)c2cc(OC)c(OC)cc2n1`: the IC50 in experiment [1] and in experiment [2] was above 50 µM each time.

Consider `Cc1cccc(N(C)c2ncnc3n[nH]cc23)c1`, for which the half-inhibitory concentration (IC50) in experiment [1] was 0.18 µM; in experiment [2], above 50 µM.

Regarding `CN(c1ccccc1)c1ncnc2ccccc12`, the results for the IC50 in experiment [1] and in experiment [2] were above 20 µM and above 50 µM, respectively.

With `CN(c1ccccc1)c1ncnc2[nH]cnc12`, the IC50 in experiment [1] was 4 µM; in experiment [2], 2 µM.

`COc1cc2ncnc(N(C)c3cccc(C(F)(F)F)c3)c2cc1OC`: the 50% inhibitory concentration (IC50) turned out to be 0.5 µM in experiment [1] and 30 µM in experiment [2].

On to `CN(c1ccccc1)c1[nH]cnc2nncc1-2`, for which the IC50 in experiment [1] is 0.6 µM; in experiment [2], above 50 µM.

On to `COc1cc2ncnc(Nc3ccccc3)c2cc1OC`, for which the half-maximal inhibitory concentration (IC50) was above 50 µM in experiment [1] and 0.05 µM in experiment [2].

Consider `COc1ccc2ncnc(N(C)c3ccccc3)c2c1`, for which the IC50 in experiment [1] is 20 µM; in experiment [2], above 20 µM.

For `COc1cc2ncnc(N(C)c3ccc(Cl)cc3)c2cc1OC`, the IC50 came to 2.1 µM in experiment [1] and 3 µM in experiment [2].

As for `COc1cc2ncnc(N(C)c3ccccc3)c2cc1OC`, the IC50 in experiment [3] is 15 µM; in experiment [4], above 100 µM; in experiment [2] it was 4 µM.

For the molecule `COc1cc2ncnc(Nc3cc(OC)c(OC)c(OC)c3)c2cc1OC`, the IC50 in experiment [1] is above 100 µM; in experiment [3] it was 20 µM.

Turning to `COc1cc2c(N(C)c3ccccc3)ncnc2c(OC)c1OC`, the IC50 in experiment [1] and in experiment [2] was above 20 µM each time.

Consider `COc1cc2ncnc(N(C)c3ccc(C)cc3)c2cc1OC`, for which the half-inhibitory concentration (IC50) worked out at 2 µM in experiment [1] and 4 µM in experiment [2].

Regarding `COc1cc2ncnc(N3CCc4ccccc43)c2cc1OC`, the figures for the half-inhibitory concentration (IC50) in experiment [1] and in experiment [2] were 5 µM and 3 µM, respectively.

Turning to `COc1cc2ncnc(N(C)c3cccc(C)c3)c2cc1OC`, the IC50 in experiment [1] is 0.18 µM; in experiment [2] it was 12 µM.

Turning to `COc1cc2ncnc(N(C)c3cccc(Cl)c3)c2cc1OC`, the IC50 turned out to be 1.5 µM in experiment [1] and 0.1 µM in experiment [2].

`CCN(c1ccccc1)c1ncnc2cc(OC)c(OC)cc12`: the IC50 in experiment [2] was determined as 5.5 µM.

`Cc1cccc(N(C)c2ncnc3cc(C)c(C)cc23)c1`: the concentration for half-maximal inhibition (IC50) is 1.6 µM in experiment [1] and 6.5 µM in experiment [2].
